Measured values from US20220331303A1, “USE OF AN OREXIN 2 RECEPTOR AGONIST FOR THE TREATMENT OF EXCESSIVE SLEEPINESS” (Takeda Pharmaceutical Company Limited, priority 2019, published 2022).
Values joined by “and” are separate entries in the source; they are usually repeats but may differ in a detail not shown here. Identical values can stand only once.

System: sleep-deprived healthy volunteers
Test: Maintenance of wakefulness test (MWT) in sleep-deprived healthy volunteers
Type: in vivo, human
Settings: for Stage N2 Duration (MWT), LS Mean Difference vs placebo / Total Microsleeps (MWT), LS Mean / Total Microsleeps (MWT), LS Mean Difference vs placebo / Duration Total Microsleeps (MWT), LS Mean / Duration Total Microsleeps (MWT), LS Mean Difference vs placebo / Latency to Sleep Onset on MWT, LS Mean / Latency to Sleep Onset on MWT, LS Mean Difference vs placebo / Stage N1 Duration (MWT), LS Mean / Stage N1 Duration (MWT), LS Mean Difference vs placebo / Stage N2 Duration (MWT), LS Mean: Compound A 112 mg (HD)
Protocol: The primary objective of this study was to determine the effect of Compound A (methyl (2R,3S)-3-((methylsulfonyl)amino)-2-(((cis-4-phenylcyclohexyl)oxy)methyl)piperidine-1-carboxylate), 44 mg (low dose [LD]) and 112 mg (high dose [HD]), after a single IV dose (compared to placebo) on promoting wakefulness as measured by sleep latency on the MWT (performed at approximately 2, 4, 6, and 8 hours post-dosing starting at approximately 1:00 AM and then at approximate times of 3:00, 5:00, and 7:00 AM) in sleep-deprived healthy volunteers.
This was a phase 1b, single-center, randomized, double-blind, double-dummy, placebo- and active-controlled, 4-period Williams design crossover study to evaluate the PK, PD, and safety of Compound A in sleep-deprived healthy volunteers. Compound A was administered as a 9-hour IV infusion.
Healthy adult male subjects aged 18 to 40 years, inclusive, who satisfied the inclusion and exclusion criteria were enrolled in the trial. On Day 1 of treatment period 1, eligible subjects were equally randomized to 4 treatment sequence groups (sequence 1 to 4) which defined the order of administration for Compound A LD, Compound A HD (both delivered as a 9-hour IV infusion), modafinil 300 mg, and placebo.
During the day before dosing on Day 1, participants were administered the KSS at scheduled timepoints. A practice MWT session was performed on Day 1 treatment period 1 (only once during the entire study) to familiarize subjects with the procedures. Study drug was administered in the clinic in the evening on Day 1 of each treatment period. Subjects underwent the MWT and KSS at specified timepoints after the start of the infusion. Subjects were required to stay awake between the MWT tests. Following completion of the IV infusion on Day 2, subjects underwent an additional MWT test. When the final MWT test and cognitive testing were completed, subjects were allowed to sleep (recovery sleep) for approximately 6 hours. PSG recording was collected during this time. Subjects were discharged from the unit after completion on Day 2 with continuing actigraphy upon discharge (to begin on Day −6 before the next treatment period). The interval between each subsequent treatment period was at least 7 days to ensure that the subject's circadian rhythm had returned to a normal cycle. Subject's vital signs, including BP, were monitored during the dosing and testing period. Blood samples for determination of Compound A plasma concentrations were collected at specified timepoints on Days 1 and 2 of each treatment period. Subjects completed the Columbia-Suicide Severity Rating Scale (C-SSRS) during screening, before study drug administration, and before discharge on Day 2 of each treatment period.
Primary endpoint: Latency for each MWT, defined as time to sleep onset.

[1] = average overall during infusion
[2] = Compound A 112 mg, after the end of infusion (1 hour post end of infusion)
[3] = HD: Compound A 112 mg, 2 HOURS POST INFUSION START
[4] = HD: Compound A 112 mg, 4 HOURS POST INFUSION START
[5] = HD: Compound A 112 mg, 6 HOURS POST INFUSION START
[6] = HD: Compound A 112 mg, 8 HOURS POST INFUSION START
[7] = HD: Compound A 112 mg, Average Overall, MWT during infusion
[8] = LD: Compound A 44 mg, 2 HOURS POST INFUSION START
[9] = LD: Compound A 44 mg, 4 HOURS POST INFUSION START
[10] = LD: Compound A 44 mg, 6 HOURS POST INFUSION START
[11] = LD: Compound A 44 mg, 8 HOURS POST INFUSION START
[12] = LD: Compound A 44 mg, Average Overall, MWT during infusion

COC(=O)N1CCC[C@H](NS(C)(=O)=O)[C@@H]1CO[C@H]1CC[C@@H](c2ccccc2)CC1 [Compound A, methyl (2R,3S)-3-((methylsulfonyl)amino)-2-(((cis-4-phenylcyclohexyl)oxy)methyl)piperidine-1-carboxylate]
Stage N2 Duration (MWT), LS Mean Difference vs placebo (4 hours post infusion start): -1.15 min | Total Microsleeps (MWT), LS Mean (4 hours post infusion start): 0.00 | Total Microsleeps (MWT), LS Mean Difference vs placebo (4 hours post infusion start): −2.35 | Duration Total Microsleeps (MWT), LS Mean (6 hours post infusion start): 0.43 s | Duration Total Microsleeps (MWT), LS Mean Difference vs placebo (6 hours post infusion start): -6.97 s | Latency to Sleep Onset on MWT, LS Mean (6 hours post infusion start): 38.36 min | Latency to Sleep Onset on MWT, LS Mean Difference vs placebo (6 hours post infusion start): 32.21 min | Stage N1 Duration (MWT), LS Mean (6 hours post infusion start): 0.07 min | Stage N1 Duration (MWT), LS Mean Difference vs placebo (6 hours post infusion start): -1.08 min | Stage N2 Duration (MWT), LS Mean (6 hours post infusion start): 0.06 min | Stage N2 Duration (MWT), LS Mean Difference vs placebo (6 hours post infusion start): -0.44 min | Total Microsleeps (MWT), LS Mean (6 hours post infusion start): 0.11 | Total Microsleeps (MWT), LS Mean Difference vs placebo (6 hours post infusion start): −1.14 | Duration Total Microsleeps (MWT), LS Mean (8 hours post infusion start): 5.21 s | Duration Total Microsleeps (MWT), LS Mean Difference vs placebo (8 hours post infusion start): -2.59 s | Latency to Sleep Onset on MWT, LS Mean (8 hours post infusion start): 36.86 min | Latency to Sleep Onset on MWT, LS Mean Difference vs placebo (8 hours post infusion start): 33.33 min | Stage N1 Duration (MWT), LS Mean (8 hours post infusion start): 0.18 min | Stage N1 Duration (MWT), LS Mean Difference vs placebo (8 hours post infusion start): -0.97 min | Stage N2 Duration (MWT), LS Mean (8 hours post infusion start): 0.28 min | Stage N2 Duration (MWT), LS Mean Difference vs placebo (8 hours post infusion start): -0.82 min | Total Microsleeps (MWT), LS Mean (8 hours post infusion start): 1.11 | Total Microsleeps (MWT), LS Mean Difference vs placebo (8 hours post infusion start): −0.19 | Duration Total Microsleeps (MWT), LS Mean [1]: 1.40 s | Duration Total Microsleeps (MWT), LS Mean Difference vs placebo [1]: -7.68 s | Latency to Sleep Onset on MWT, LS Mean [1]: 38.82 min and 38.82 (1.955) min | Latency to Sleep Onset on MWT, LS Mean Difference vs placebo [1]: 30.21 min and 30.2 min and 30.21 (2.682) min | Stage N1 Duration (MWT), LS Mean [1]: 0.04 min | Stage N1 Duration (MWT), LS Mean Difference vs placebo [1]: -1.23 min | Stage N2 Duration (MWT), LS Mean [1]: 0.09 min | Stage N2 Duration (MWT), LS Mean Difference vs placebo [1]: -0.81 min | Total Microsleeps (MWT), LS Mean [1]: 0.31 | Latency to Sleep Onset on MWT, LS Mean (SE) [2]: 2.36 (2.241) | Latency to Sleep Onset on MWT, LS Mean Difference vs placebo, Estimate (SE) [2]: −2.29 (2.752) | Total Sleep Time LS Mean [3]: 0.02 min | Total Sleep Time LS Mean Difference vs Placebo Estimate [3]: -2.71 min | Total Wake Time LS Mean [3]: 39.89 min | Total Wake Time LS Mean Difference vs Placebo Estimate [3]: 22.17 min | Total Sleep Time LS Mean [4]: -0.01 min | Total Sleep Time LS Mean Difference vs Placebo Estimate [4]: -3.16 min | Total Wake Time LS Mean [4]: 40.08 min | Total Wake Time LS Mean Difference vs Placebo Estimate [4]: 30.03 min | Total Sleep Time LS Mean [5]: 0.21 min | Total Sleep Time LS Mean Difference vs Placebo Estimate [5]: -2.01 min | Total Wake Time LS Mean [5]: 38.86 min | Total Wake Time LS Mean Difference vs Placebo Estimate [5]: 32.44 min | Total Sleep Time LS Mean [6]: 0.57 min | Total Sleep Time LS Mean Difference vs Placebo Estimate [6]: -2.35 min | Total Wake Time LS Mean [6]: 37.36 min | Total Wake Time LS Mean Difference vs Placebo Estimate [6]: 33.71 min | Total Sleep Time LS Mean [7]: 0.20 min | Total Sleep Time LS Mean Difference vs Placebo Estimate [7]: -2.56 min | Total Wake Time LS Mean [7]: 39.05 min | Total Wake Time LS Mean Difference vs Placebo Estimate [7]: 29.59 min | Total Sleep Time LS Mean [8]: 0.47 min | Total Sleep Time LS Mean Difference vs Placebo Estimate [8]: -2.26 min | Total Wake Time LS Mean [8]: 35.73 min | Total Wake Time LS Mean Difference vs Placebo Estimate [8]: 18.00 min | Total Sleep Time LS Mean [9]: 1.27 min | Total Sleep Time LS Mean Difference vs Placebo Estimate [9]: -1.88 min | Total Wake Time LS Mean [9]: 32.42 min | Total Wake Time LS Mean Difference vs Placebo Estimate [9]: 22.37 min | Total Sleep Time LS Mean [10]: 4.69 min | Total Sleep Time LS Mean Difference vs Placebo Estimate [10]: 2.47 min | Total Wake Time LS Mean [10]: 21.78 min | Total Wake Time LS Mean Difference vs Placebo Estimate [10]: 15.36 min | Total Sleep Time LS Mean [11]: 5.63 min | Total Sleep Time LS Mean Difference vs Placebo Estimate [11]: 2.71 min | Total Wake Time LS Mean [11]: 13.37 min | Total Wake Time LS Mean Difference vs Placebo Estimate [11]: 9.72 min | Total Sleep Time LS Mean [12]: 3.02 min | Total Sleep Time LS Mean Difference vs Placebo Estimate [12]: 0.26 min | Total Wake Time LS Mean [12]: 25.83 min | Total Wake Time LS Mean Difference vs Placebo Estimate [12]: 16.36 min | Compound A plasma concentration at which magnitude of wake-promoting effects appeared to diminish over time (sleep latency vs plasma concentration by MWT session (FIG. 8)): less than 200 ng/mL
